Structures can show the parent of a compound that is named as a salt. Where two headings read alike, the source gives them in different places.
Key:
HCT-116 cell line = assay: Inhibition of cell growth, tetrazolium salt (MTT) assay; format: cell-based; conditions: for IC50: Homo sapiens, HCT-116, 120 h, MTT, three to five days; for HCT-116 % Inhibition at 0.25 μM: 0.25 μM compound
Outline: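 McCoy's 5A cultures; 4 h pre-incubation; compound dilutions in 0.5% v/v DMSO; 3–5 d, 37° C, 5% CO2; MTT 0.2 mg/mL final, 4 h; formazan dissolved in DMSO, A540; vs 0.5% DMSO vehicle.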

CDK2/Cyclin A = CDK2/Cyclin A (Homo sapiens, UniProt P24941); assay: Inhibition of CDK2/Cyclin A Retinoblastoma Kinase Activity; format: biochemical; conditions: for Ki: apparent Ki, CDK2/proteolyzed cyclin A, Rb fragment substrate, 25 μM ATP; for CDK2 % Inhibition At 0.03 μM: Table 2
Outline: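 Baculovirus-expressed CDK2 complexed with proteolyzed cyclin A (10 or 19 nM), Rb fragment substrate, 25 μM [32P/33P]ATP, HEPES pH 7.4, 30 °C for 60 or 75 min under initial-rate conditions. Filter capture and phosphorimager readout; apparent Ki fitted to competitive or tight-binding competitive inhibition.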

[1] = target: human CDK4 and genetically truncated (1-264) cyclin D3 (Homo sapiens, UniProt P11802); assay: Inhibition of CDK4/Cyclin D Retinoblastoma Kinase Activity; format: biochemical; conditions: for Ki: apparent Ki, CDK4/truncated cyclin D3, Rb fragment substrate, 25 μM ATP
Sequence of human CDK4 and genetically truncated (1-264) cyclin D3 (P11802 whole entry, the tested form may be a part): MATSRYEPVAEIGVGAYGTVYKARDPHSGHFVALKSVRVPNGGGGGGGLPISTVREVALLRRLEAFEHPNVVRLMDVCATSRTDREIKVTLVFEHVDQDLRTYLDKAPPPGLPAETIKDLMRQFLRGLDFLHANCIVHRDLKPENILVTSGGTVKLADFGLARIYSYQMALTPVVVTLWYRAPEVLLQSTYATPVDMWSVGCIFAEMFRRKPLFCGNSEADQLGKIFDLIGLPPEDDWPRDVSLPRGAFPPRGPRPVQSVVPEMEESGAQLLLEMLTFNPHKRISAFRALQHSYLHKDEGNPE
Sequence of human CDK4 and genetically truncated (1-264) cyclin D3 (P30281 1-264 partner): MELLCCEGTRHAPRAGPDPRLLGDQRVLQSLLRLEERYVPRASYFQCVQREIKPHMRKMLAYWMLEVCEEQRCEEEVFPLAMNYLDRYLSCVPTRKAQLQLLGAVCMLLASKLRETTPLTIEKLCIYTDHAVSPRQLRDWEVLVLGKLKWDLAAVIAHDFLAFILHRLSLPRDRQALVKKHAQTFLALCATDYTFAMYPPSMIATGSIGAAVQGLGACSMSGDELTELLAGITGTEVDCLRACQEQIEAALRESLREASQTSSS
Outline: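 Human CDK4/truncated cyclin D3 (1-264) complex from baculovirus-infected insect cells, 5 nM, phosphorylating Rb fragment (residues 386-928, His-tagged) with 25 μM [32/33P]ATP in HEPES pH 7.4, MgCl2, 2% DMSO at 30° C. for 20 min (60 min for tight binders). Filter-captured radioactivity by phosphorimager; apparent Ki from competitive or tight-binding fits.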

[2] = first HCT-116 column (c4), read-out: HCT-116 IC50
[3] = second HCT-116 column (c5), read-out: HCT-116 IC50

SMILES | Ki (CDK2/Cyclin A) | Ki [1] | HCT-116 % Inhibition at 0.1 μM (HCT-116 cell line; HCT-116 cells, at 0.1 μM) | HCT-116 5 Inhibition at 0.25 μM (HCT-116 cell line; HCT-116 cells) | CDK2 % Inhibition at 0.03 μM (CDK2/Cyclin A; at 0.03 μM) | CDK4 % Inhibition at 0.03 μM ([1]; at 0.03 μM) | also measured
CN1CCC[C@H](Oc2ccc(S(=O)(=O)N3CCC(Nc4nc(N)c(C(=O)c5c(F)cccc5F)s4)CC3)cn2)C1 [Example H29, (4-Amino-2-{1-[6-(1-methyl-piperidin-3S-yloxy)-pyridine-3-sulfonyl]-piperidin-4-ylamino}-thiazol-5-yl)-(2,6-difluoro-phenyl)-methanone Hydrochloride] | 0.52 nM | 1.3 nM | – | – | – | – | IC50 (HCT-116 cell line; [2]): 36 nM; IC50 (HCT-116 cell line; [3]): 300 nM
Nc1nc(NC2CCN(S(=O)(=O)CCNCCN3CCCC3)CC2)sc1C(=O)c1c(F)cccc1F [Example K28, (4-Amino-2-{1-[2-(2-pyrrolidin-1-yl-ethylamino)-ethanesulfonyl]-piperidin-4-ylamino}-thiazol-5-yl)-(2,6-difluoro-phenyl)-methanone Trifluoroacetic Acid Salt.] | 10 nM | 2.8 nM | – | – | – | – | IC50 (HCT-116 cell line; [2]): > 5000 nM; IC50 (HCT-116 cell line; [3]): > 5000 nM
Nc1nc(NC2CCN(C(=O)C3CCCC3)CC2)sc1C(=O)c1c(F)cccc1F [Example Q57] | – | – | – | – | – | – | HCT-116 % Inhibition at 0.1 μM (HCT-116 cell line; 0.1 μM compound, HCT-116, Table 4): 0%; HCT-116 % Inhibition at 0.25 μM (HCT-116 cell line; HCT-116, Table 4): 32%; CDK2 % Inhibition at 0.03 μM (CDK2/Cyclin A; 0.03 μM compound, Table 4): 32%; CDK4 % Inhibition at 0.03 μM ([1]; 0.03 μM compound, Table 4): 40%
CCOC(=O)C(CC(C)C)NC(=O)N1CCC(Nc2nc(N)c(C(=O)c3c(F)cccc3F)s2)CC1 (stereo not drawn) [Example O69] | – | – | – | – | – | – | HCT-116 % Inhibition at 0.25 μM (HCT-116 cell line; HCT-116, Table 2): 51%; CDK2 % Inhibition At 0.03 μM (CDK2/Cyclin A; 0.03 μM compound): 29%; CDK4 % Inhibition at 0.03 μM ([1]; 0.03 μM compound, Table 2): 5%
Cc1c(S(=O)(=O)N2CCC(Nc3nc(N)c(C(=O)c4c(F)cccc4F)s3)CC2)sc2ccc(Cl)cc12 [Example P69] | – | – | – | – | – | – | HCT-116 % Inhibition at 0.1 μM (HCT-116 cell line; 0.1 μM compound, HCT-116, Table 3): 13%; HCT-116 % Inhibition at 0.25 μM (HCT-116 cell line; HCT-116, Table 3): 30%; CDK2 % Inhibition at 0.03 μM (CDK2/Cyclin A; 0.03 μM compound, Table 3): −2%; CDK4 % Inhibition at 0.03 μM ([1]; 0.03 μM compound, Table 3): 21%
Cc1cc(C)cc(C(=O)N2CCC(Nc3nc(N)c(C(=O)c4c(F)cccc4F)s3)CC2)c1 [Example R142] | – | – | 86% | 99 | 67% | 83% | –
CCOC(=O)C(C)NC(=O)N1CCC(Nc2nc(N)c(C(=O)c3c(F)cccc3F)s2)CC1 (stereo not drawn) [Example O72] | – | – | – | – | – | – | HCT-116 % Inhibition at 0.25 μM (HCT-116 cell line; HCT-116, Table 2): 62%; CDK2 % Inhibition At 0.03 μM (CDK2/Cyclin A; 0.03 μM compound): 24%; CDK4 % Inhibition at 0.03 μM ([1]; 0.03 μM compound, Table 2): 11%
Nc1nc(NC2CCN(C(=O)C3(c4ccccc4)CCCC3)CC2)sc1C(=O)c1c(F)cccc1F [Example R95] | – | – | 0% | 38 | −13% | −27% | –
COc1ccccc1CCC(=O)N1CCC(Nc2nc(N)c(C(=O)c3c(F)cccc3F)s2)CC1 [Example R175] | – | – | 0% | 47 | 19% | 41% | –
Cc1ccc(C(=O)N2CCC(Nc3nc(N)c(C(=O)c4c(F)cccc4F)s3)CC2)cc1F [Example R131] | – | – | 1% | 44 | 42% | 58% | –
Nc1nc(NC2CCN(S(=O)(=O)c3ccc(OCCN4CCOCC4)nc3)CC2)sc1C(=O)c1c(F)cccc1F [Example H2, 1-{4-Amino-2-[1-{6-morpholin-(4-yl-ethoxy)-pyridine-3-sulfonyl}-piperidin-4-ylamino]-thiazol-5-yl}-1-(2,6-difluoro-phenyl)-methanone Hydrochloride] | 2.8 nM | 0.77 nM | – | – | – | – | IC50 (HCT-116 cell line; [2]): 80 nM; IC50 (HCT-116 cell line; [3]): 250 nM
Nc1nc(NC2CCN(C(=O)c3cc(Cl)ccc3O)CC2)sc1C(=O)c1c(F)cccc1F [Example R120] | – | – | 0% | 47 | 18% | 4% | –
Nc1nc(NC2CCN(C(=O)Oc3ccc(Cl)cc3)CC2)sc1C(=O)c1c(F)cccc1F [Example C3, 4-[4-Amino-5-(2,6-difluoro-benzoyl)-thiazol-2-ylamino]-piperidine-1-carboxylic Acid 4-Chloro-phenyl Ester] | 17 nM | 3.7 nM | – | – | – | – | IC50 (HCT-116 cell line; read-out: HCT-116 IC50, first HCT-116 column (c4)): 330 nM; IC50 (HCT-116 cell line; read-out: HCT-116 IC50, second HCT-116 column (c5)): 1200 nM
CN(C)CCN(C)c1ncc(S(=O)(=O)N2CCC(Nc3nc(N)c(C(=O)c4c(F)cccc4F)s3)CC2)cc1Br [Example G24, 1-[4-Amino-2-(1-{5-bromo-6-[(2-dimethylamino-ethyl)-methyl-amino]-pyridine-3-sulfonyl}-piperidin-4-ylamino)-thiazol-5-yl]-1-(2,6-difluoro-phenyl)-methanone] | 0.85 nM | 0.48 nM | – | – | – | – | IC50 (HCT-116 cell line; [2]): 290 nM; IC50 (HCT-116 cell line; [3]): 620 nM
